Experimental data as given in patent publication US20220132846A1, “1-PYRIDYL-PYRAZOLYL AMIDE COMPOUNDS AND PREPARATION AND USES THEREOF” (HUNAN RESEARCH INSTITUTE OF CHEMICAL INDUSTRY CO., LTD., priority 2019, published 2022).

Tests used:
[1] = tested on: Aphis fabae; assay: Test against aphid, leaf dip method (Aphis fabae); type: in vivo; conditions: foliar, after 24 hours, read-out: Activity (mortality) level against Aphis fabae; for mortality at 12.5 µg/mL: 12.5 mg/L; for mortality at 50 µg/mL: 50 mg/L; for mortality at 200 µg/mL: 200 mg/L; for mortality at 500 µg/mL: 500 mg/L
Experimental: For evaluating the activity of the compounds of this invention against Homoptera pests, Aphis fabae, wheat aphids, etc. were selected as the test insects, and the activity of the compounds of this invention against aphids was measured by leaf dip method indoors.
Leaf dip method (Aphis fabae): the test compound was dissolved in an appropriate solvent such as N,N-dimethylformamide, and then diluted with 0.2% aqueous solution of Tween 80 to the desired concentration, Those without the test compounds were set as blank controls, the treatments were replicated 3 times. Horsebean seedlings with no less than twenty 3-day-old Aphis fabae per plant was cut from the stem, 5 horsebean seedlings with the insects were dipped in the test solution for 5 seconds, then inserted into a sponge filled with water after sucked dry using filter paper, then covered with a glass tube and placed in a chamber for culture. After 24 hours, the number of living and dead insects were investigated and the results were averaged. […]

[2] = tested on: Armyworm (Mythimna separata (Walker)); assay: Test against armyworm, Potter tower method; type: in vivo; conditions: for mortality at 12.5 µg/mL / mortality at 50 µg/mL / mortality at 500 µg/mL: Mythimna separata, third-instar larvae, after 72 hours, read-out: Activity (mortality) level against armyworm; for mortality at 12.5 µg/mL: 12.5 mg/L; for mortality at 50 µg/mL: 50 mg/L; for mortality at 500 µg/mL: 500 mg/L; for Activity against armyworm, further screening (in words): compared with chlorantraniliprole (D1)
Experimental: Potter tower method: the test compound was dissolved in an appropriate solvent such as N,N-dimethylformamide, and then diluted with 0.2% aqueous solution of Tween 80 to the desired concentration, Those without the test compounds were set as blank controls. The fresh and tender corn leaves were taken and cut into fragments of basically the same size, then put into a Petri dish (diameter 90 mm) padded with filter paper in advance. Ten third-instar larvae of test insects were transferred into the dish and then placed under the Potter spray tower for being sprayed, each concentration treatment was sprayed at the amount of 1 mL and replicated 3 times. The dish was covered and then placed in a chamber for culture and observed regularly, after 72 hours, the dead insects was investigated and recorded and the mean mortality was calculated. […]

CCCNC(=O)c1cc(Cl)cc(Cl)c1N(C)C(=O)c1cc(Br)nn1-c1ncccc1Cl [Compound 3, N-[2,4-dichloro-6-[(propylamino)carbonyl]phenyl]-N-methyl-1-(3-chloro-2-pyridinyl)-3-bromo-1H-pyrazole-5-carboxamide]
mortality at 12.5 µg/mL [1]: 90 to 100% | mortality at 50 µg/mL [1]: 90 to 100% | mortality at 200 µg/mL [1]: 90 to 100% | mortality at 500 µg/mL [1]: 90 to 100% | mortality at 12.5 µg/mL [2]: 90 to 100% | mortality at 50 µg/mL [2]: 90 to 100% | mortality at 500 µg/mL [2]: 90 to 100%

CC(C)NC(=O)c1cc(Cl)cc(Cl)c1N(C)C(=O)c1cc(Br)nn1-c1ncccc1Cl [Compound 5, N-[2,4-dichloro-6-[(isopropylamino)carbonyl]phenyl]-N-methyl-1-(3-chloro-2-pyridinyl)-3-bromo-1H-pyrazole-5-carboxamide]
mortality at 12.5 µg/mL [1]: 90 to 100% | mortality at 50 µg/mL [1]: 90 to 100% | mortality at 200 µg/mL [1]: 90 to 100% | mortality at 500 µg/mL [1]: 90 to 100% | mortality at 12.5 µg/mL [2]: 90 to 100% | mortality at 50 µg/mL [2]: 90 to 100% | mortality at 500 µg/mL [2]: 90 to 100% | Activity against armyworm, further screening (in words) [2]: excellent activity

CN(C(=O)c1cc(Br)nn1-c1ncccc1Cl)c1c(Cl)cc(Cl)cc1C(=O)NC1CC1 [Compound 6, N-[2,4-dichloro-6-[(cyclopropylamino)carbonyl]phenyl]-N-methyl-1-(3-chloro-2-pyridinyl)-3-bromo-1H-pyrazole-5-carboxamide]
mortality at 12.5 µg/mL [1]: 90 to 100% | mortality at 50 µg/mL [1]: 90 to 100% | mortality at 200 µg/mL [1]: 90 to 100% | mortality at 500 µg/mL [1]: 90 to 100% | mortality at 12.5 µg/mL [2]: 90 to 100% | mortality at 50 µg/mL [2]: 90 to 100% | mortality at 500 µg/mL [2]: 90 to 100%

CCCCNC(=O)c1cc(Cl)cc(Cl)c1N(C)C(=O)c1cc(Br)nn1-c1ncccc1Cl [Compound 7, N-[2,4-dichloro-6-[(butylamino)carbonyl]phenyl]-N-methyl-1-(3-chloro-2-pyridinyl)-3-bromo-1H-pyrazole-5-carboxamide]
mortality at 50 µg/mL [1]: 90 to 100% | mortality at 200 µg/mL [1]: 90 to 100% | mortality at 500 µg/mL [1]: 90 to 100% | mortality at 50 µg/mL [2]: 90 to 100% | mortality at 500 µg/mL [2]: 90 to 100%

CC(C)N(C)C(=O)c1cc(Cl)cc(Cl)c1N(C)C(=O)c1cc(Br)nn1-c1ncccc1Cl [Compound 13, N-[2,4-dichloro-6-[(methyl(isopropyl)amino)carbonyl]phenyl]-N-methyl-1-(3-chloro-2-pyridinyl)-3-bromo-1H-pyrazole-5-carboxamide]
mortality at 12.5 µg/mL [1]: 90 to 100% | mortality at 50 µg/mL [1]: 90 to 100% | mortality at 200 µg/mL [1]: 90 to 100% | mortality at 500 µg/mL [1]: 90 to 100% | mortality at 50 µg/mL [2]: 90 to 100% | mortality at 500 µg/mL [2]: 90 to 100%

CN(C(=O)c1cc(Br)nn1-c1ncccc1Cl)c1c(Cl)cc(Cl)cc1C(=O)N(C)C1CC1 [Compound 14, N-[2,4-dichloro-6-[(methyl(cyclopropyl)amino)carbonyl]phenyl]-N-methyl-1-(3-chloro-2-pyridinyl)-3-bromo-1H-pyrazole-5-carboxamide]
mortality at 12.5 µg/mL [1]: 90 to 100% | mortality at 50 µg/mL [1]: 90 to 100% | mortality at 200 µg/mL [1]: 90 to 100% | mortality at 500 µg/mL [1]: 90 to 100% | mortality at 12.5 µg/mL [2]: 90 to 100% | mortality at 50 µg/mL [2]: 90 to 100% | mortality at 500 µg/mL [2]: 90 to 100% | Activity against armyworm, further screening (in words) [2]: excellent activity

CCCN(CCC)C(=O)c1cc(Cl)cc(Cl)c1N(C)C(=O)c1cc(Br)nn1-c1ncccc1Cl [Compound 16, N-[2,4-dichloro-6-[(dipropylamino)carbonyl]phenyl]-N-methyl-1-(3-chloro-2-pyridinyl)-3-bromo-1H-pyrazole-5-carboxamide]
mortality at 12.5 µg/mL [1]: 90 to 100% | mortality at 50 µg/mL [1]: 90 to 100% | mortality at 200 µg/mL [1]: 90 to 100% | mortality at 500 µg/mL [1]: 90 to 100% | mortality at 50 µg/mL [2]: 90 to 100% | mortality at 500 µg/mL [2]: 90 to 100%

CCN(C(=O)c1cc(Br)nn1-c1ncccc1Cl)c1c(Cl)cc(Cl)cc1C(=O)N(C)C [Compound 17, N-[2,4-dichloro-6-[(dimethylamino)carbonyl]phenyl]-N-ethyl-1-(3-chloro-2-pyridinyl)-3-bromo-1H-pyrazole-5-carboxamide]
mortality at 12.5 µg/mL [1]: 90 to 100% | mortality at 50 µg/mL [1]: 90 to 100% | mortality at 200 µg/mL [1]: 90 to 100% | mortality at 500 µg/mL [1]: 90 to 100% | mortality at 12.5 µg/mL [2]: 90 to 100% | mortality at 50 µg/mL [2]: 90 to 100% | mortality at 500 µg/mL [2]: 90 to 100%

CCN(C)C(=O)c1cc(Cl)cc(Cl)c1N(CC)C(=O)c1cc(Br)nn1-c1ncccc1Cl [Compound 18, N-[2,4-dichloro-6-[(methyl(ethyl)amino)carbonyl]phenyl]-N-ethyl-1-(3-chloro-2-pyridinyl)-3-bromo-1H-pyrazole-5-carboxamide]
mortality at 12.5 µg/mL [1]: 90 to 100% | mortality at 50 µg/mL [1]: 90 to 100% | mortality at 200 µg/mL [1]: 90 to 100% | mortality at 500 µg/mL [1]: 90 to 100% | mortality at 50 µg/mL [2]: 90 to 100% | mortality at 500 µg/mL [2]: 90 to 100%
